Earlier results as cited in patent publication US6989159B2 (JDS Pharmaceuticals, LLC, priority 2000, dated 2006).

Structure (SMILES): O=C([O-])[O-].[Li+].[Li+] [Lithium carbonate]
- eliminated through urine (in vivo): More than 95%
- reabsorbed in the proximal convoluted tubule (in vivo): 80%
- time to complete absorption in the gastrointestinal tract (in vivo): about 8 hours
- concentration in the liquor compared with the plasmatic one (steady state): below 50%
- plasma half-life at the steady state (steady state): 20 to 24 h
